Experimental findings from US20060205772A1, “Amide derivatives and their use as inhibitors of 11-beta-hydroxysteroid dehydrogenase type I” (priority 2003, published 2006) are described below.

As a reminder, the melting point is the temperature of the solid-liquid transition. Take `Cc1ccc(NC(=O)c2ccc(C(=O)N3CCC[C@H]4CCCC[C@@H]43)cc2)cc1` (racemic) [Example 22, 4-[(4aS*,8aR*)-Octahydro-1(2H)-quinoline-1-carbonyl]-N-p-tolylbenzamide]: the melting point was 199 to 203 °C. Consider `O=C(Nc1ccc(C(=O)N2CCC[C@H]3CCCC[C@@H]32)cn1)c1ccc(Cl)cc1Cl` (racemic) [Example 25, 2,4-Dichloro-N-{5-[(4aS*,8aR*)-octahydro-1(2H)-quinoline-1-carbonyl]-pyridin-2-yl}-benzamide], for which the melting point lay within 202 to 203 °C.

Compound `O=C(Nc1ccc(C(=O)N2CCC[C@H]3CCCC[C@@H]32)cn1)c1ccc(F)cc1` (racemic) [Example 26, 4-Fluoro-N-{5-[(4aS*,8aR*)-octahydro-1(2H)-quinoline-1-carbonyl]-pyridin-2-yl}-benzamide] yielded a melting point of 144 to 145 °C.

The compound `COc1ccc(C(=O)Nc2ccc(C(=O)N3CCC[C@H]4CCCC[C@@H]43)c3ccccc23)cc1OC` (racemic) [Example 27, 3,4-Dimethoxy-N-{4-[(4aS*,8aR*)-octahydro-1(2H)-quinoline-1-carbonyl]-naphthalen-1-yl}-benzamide] returned a melting point of 251 to 260 °C.

In turn, `O=C(Nc1cccc(-c2ccc(C(=O)N3CCC[C@H]4CCCC[C@@H]43)o2)c1)c1ccccc1` (racemic) [Example 34, N-{3-[5-((4aS*,8aR*)-Octahydro-1(2H)-quinoline-1-carbonyl)-furan-2-yl]-phenyl}-benzamide] came in with a melting point of 62 to 64 °C.

`CC1=C(C(=O)N2CCC[C@@H]3CCCC[C@H]32)Cc2ccccc21` (racemic) [Example 36, (3-Methyl-H-inden-2-yl)-(4aS*,8aR*)-octahydro-1(2H)-quinolin-1-yl-methanone] showed a melting point of 98 to 100 °C. The result for `CC1(C)CC[C@H]2[C@@H](CCCN2C(=O)c2ccc(NC(=O)c3ccc(Cl)cc3Cl)cc2)C1` (racemic) [Example 44, 2,4-Dichloro-N-[4-((4aS*,8aS*)-6,6-dimethyl-octahydro-1(2H)-quinoline-1-carbonyl)-phenyl]-benzamide] reads 220 to 221 °C. For the compound `O=C(Nc1ccc(C(=O)N2CCC[C@H]3CC(O)CC[C@@H]32)cc1)c1ccc(Cl)cc1Cl` (relative stereo) [Example 41, 2,4-Dichloro-N-[4-((4aS*,6S*,8aS*)-6-hydroxy-octahydro-1(2H)-quinoline-1-carbonyl)-phenyl]-benzamide], the melting point was 183 to 184 °C. As to `CN(CC1CCCCC1)C(=O)c1ccc(NC(=O)c2ccc(F)cc2)cc1` [Example 1, N-Cyclohexylmethyl-4-fluorobenzoylamino-N-methylbenzamide], the melting point lay within 158 to 160 °C.

Regarding `C[C@H]1CCCC[C@@H]1N(C)C(=O)c1ccc(NC(=O)c2ccc(Cl)cc2Cl)cc1` [Example 8-8], the melting point fell in the range of 80 to 90 °C.

Turning to `CN(C(=O)c1ccc(NC(=O)c2ccc(Cl)cc2Cl)cc1)C1CC2CCC1C2` (centres unmarked) [Example 8-9], the melting point lay in the range of 85 to 100 °C.
